What was measured:
LS174T cells = experiment: Western blot analysis of LS174T cells treated with azido-sugars; type: cell-based; conditions: 72 h
Method: Western blot analysis of cells treated with azido-sugars. LS174T cells were seeded onto cell culture flasks (25 cm^2 growth area) at a density of 1×10^6 cells per plate in 5 mL of media. Different azido-sugars were added and incubated with cells for 72 h. The cells were washed with PBS twice and harvested from the flasks using a cell scraper. Cells were pelleted by centrifugation at 1000 rpm for 5 min and re-suspended in 200 μL of lysis buffer (1% SDS, 100 mM Tris.HCl, pH 7.4) containing 1 tablet protease inhibitor (EDTA-free). The lysate was incubated at 4° C. for 30 min, followed by centrifugation at 3000 rcf for 10 min to remove insoluble debris. The total concentration of soluble protein in each sample was determined by bicinchoninic acid (BCA) assay and adjusted to the same concentration. Then 20 μL of the lysate was taken out and incubated with phosphine-PEG3-biotin (2 μL, 5 mM in PBS) at 37° C. for 6 h. Loading buffer was added to each sample and samples were loaded onto 10% SDS-PAGE gel after heating at 95° C. After running the gel for 100 min, proteins were transferred to Hybond P membrane, followed by blocking of the membrane with 5% bovine serum albumin (BSA) in TBST (50 mM Tris.HCl, 150 mM NaCl, 0.1% Tween 20, pH 7.4) for 2 h. The membrane was then incubated with streptavidin-HRP (diluted 1:2000 in TBST) overnight at 4° C., rinsed with TBST for three times and developed by ECL Western Blotting Substrate. For fluorescent visualization of protein bands, 20 μL of cell lysate was directly incubated with DBCO-Cy3 solution for 3 h. After the gel running and membrane transfer, protein bands were visualized using an Image Quant LAS 4010 system with a Cy3/Cy3 (excitation/emission) channel.

LS174T tumors = experiment: E-S mediated cancer-selective labeling in vivo, western blot analysis of tissues; design: species or system athymic nude mice; conditions: i.v. once daily three days, 24 h p.i.; liver, spleen, heart, lung, kidney
Method: (1) Western blot analysis of tissues. LS174T tumor models were established in 6 week-old athymic nude mice by subcutaneous injection of LS174T colon cancer cells (1.5 million) in HBSS/matrigel (1/1, v/v). When the tumors grew to 5-6 mm, E-S (60 mg/kg) was i.v. injected once daily for three days. Mice i.v. administered with Ac4ManAz (40 mg/kg, 10% DMSO in PBS) or PBS were used as control. At 24 h post the last injection, tumors and major organs were harvested, transferred into lysis buffer (2 mL), and homogenized. The lysates were incubated at 4° C. for 30 min, and insoluble debris was removed by centrifugation at 3000 rpm for 10 min. Total soluble protein concentrations were determined by BCA assay and adjusted to 5 mg/mL for each group. The rest of procedures were the same as the abovementioned general procedures for western blot analysis. Azido-labeled protein bands in tumor tissues and healthy tissues of all three groups were visualized and compared to understand the cancer-selective labeling capability of E-S in vivo.

[1] = system: subcutaneous LS174T tumors; experiment: In vivo tumor labeling after intratumoral injection of azido-sugars, DBCO-Cy5 i.v.; design: species or system athymic nude mice
Method: In vivo tumor labeling of Ac4ManAz, Ac3ManAzEt, and Ac3ManAzNB. LS174T tumor models were established on 6 week-old athymic nude mice by subcutaneous injection of LS174T colon cancer cells (1.5 million) in HBSS/matrigel (1/1, v/v) to both flanks. When the tumors grew to 5-6 mm, Ac4ManAz or Ac3ManAzEt or Ac3ManAzNB (25 mM, 20 μL) was injected into the left tumors once daily for three days while the same amount of PBS was injected to the right tumors as control (N=3 per group). At 24 h post the last injection, DBCO-Cy5 (5 mg/kg) was i.v. injected and its biodistribution was monitored via in vivo fluorescence imaging. Prior to imaging, nude mice were placed on the sample stage equipped with anesthesia input and output ports, and imaged by the Maestro In-Vivo Fluorescence Imaging System. The excitation filter of 575-605 nm was used. The tunable emission filter was automatically stepped in 10-nm increments from 630 to 850 nm with an exposure time of 50 ms for images taken at each wavelength. Collected images were analyzed by the Maestro software, which uses spectral unmixing algorithms to subtract autofluorescence from Cy5 signals. Tumors and major organs were harvested from mice at 24 h post injection of DBCO-Cy5. Ex vivo images were collected similarly using the Maestro system. Fluorescence intensity at selected ROIs was quantified using Maestro imaging software. All values were presented as means±standard deviation (n=3).
Western blot analysis of tissues. Tumors and organs harvested from azido-sugar treated mice were transferred into glass tubes containing 2 mL of lysis buffer (1% SDS, 100 mM Tris HCl, pH 7.4), homogenized, and incubated at 4° C. for 30 min. The lysates were then centrifuged at 3000 rcf for 10 min to remove the insoluble debris. Total soluble protein concentrations were determined by BCA assay and adjusted to 5 mg/mL for each group. The rest of procedures were the same as the above-mentioned western blot analysis of cells.
Confocal imaging of tumor tissue sections. After ex vivo imaging, tumors were directly frozen in O.C.T. compound and sectioned on a cryostat (Leica CM3050S) with a thickness of 6-8 μm. DAPI in PBS (2 μg/mL) was added onto the tissue-attaching microscope slides to stain cell nucleus. After 10 min, DAPI solution was removed and tissues were washed with PBS for three times. Coverslips were mounted on the microscope slides with the addition of ProLong Gold antifade reagent, and the prepared sample was stored in dark for confocal imaging.

[2] = system: LS174T colon cancer cells; experiment: Metabolic labeling of LS174T cells with azido-sugars, azides detected by DBCO-Cy5 (confocal imaging, flow cytometry); type: cell-based; conditions: LS174T cells
Method: General procedures for confocal imaging of azido-sugar labeled cells. Cells were seeded onto coverslips in a 6-well plate at a cell density of 40 k/well. Ac4ManAz or Ac3ManAz derivatives were added with a final concentration of 50 μM and the cells were incubated at 37° C. for 72 h. The medium was removed and washed with PBS for three times. DBCO-Cy5 (50 μM) in Opti-MEM was then added and the cells were incubated for another 1 h. Then the medium was removed and the cells were washed with PBS for three times. 4% paraformaldehyde (PFA) solution was added to fix the cells for 10 min, followed by staining of cell nucleus with DAPI (2 μg/mL) for 10 min. The coverslips were mounted on microscope slides with the addition of ProLong Gold antifade reagent, and the prepared sample was stored in dark for imaging.
General procedures for flow cytometry analysis of azido-sugar labeled cells. Cells were seeded onto coverslips in a 6-well plate at a cell density of 40 k/well. Ac4ManAz or Ac3ManAz derivatives were added and incubated with cells for 72 h. After removal of medium and multiple washing steps, DBCO-Cy5 in opti-MEM was added and incubated with cells at 37° C. for 1 h. The opti-MEM was then removed and cells were washed with PBS for three times. Cells were lifted by incubating with trypsin solution (1 mL) at 37° C. for 3 min and transferred to test tubes with addition of 4% PFA solution (0.5 mL). Twenty thousand cells per sample were analyzed by flow cytometry and data analysis was performed on the FCS Express software.
Ac3ManAzNB mediated controlled cell labeling. LS174T cells were seeded onto coverslips in a 6-well plate at a cell density of 40 k/well. Ac3ManAzNB with a final concentration of 50 μM was added. […] Cells without UV irradiation were continuously incubated for 72 h. Cell samples for confocal imaging and flow cytometry were then prepared following the above-mentioned procedures.
Ac3ManAzHQ mediated controlled cell labeling. LS174T colon cancer cells or Caco-2 colon cancer cells or human fibroblast IMR90 cells were seeded onto coverslips in a 6-well plate at a cell density of 40 k/well and allowed to attach for overnight. Ac3ManAzHQ with a final concentration of 50 μM was added, followed by the addition of curcumin with a final concentration of 50 μM. Cells treated with PBS or Ac3ManAzHQ only were used as control. After 72-h incubation, cell samples for confocal imaging and flow cytometry were prepared following the above-mentioned procedures.
E-S mediated controlled cell labeling in vitro. LS174T colon cancer cells or human fibroblast IMR90 cells were seeded onto coverslips in a 6-well plate at a cell density of 40 k/well. E-S with a final concentration of 50 μM was added, followed by the addition of either TSA (1 μM) or Z-FY-CHO (50 μM). Cells treated with PBS or E-S only were used as the control. After 72-h incubation, the medium was removed and cell samples for confocal imaging and GE-Analyzer measurements were prepared similarly to above-mentioned procedures.

[3] = in vivo
Method: Liver, heart, kidneys, spleen, brain, sternum and spinal cord (cervical thoracic and lumbar) were fixed in formalin, paraffin-embedded, sectioned with a thickness of 4 μm, and stained with H&E. Tissues were analyzed by a board-certified pathologist to investigate treatment-mediated toxicity. These analyses were performed by a board certified pathologist.

Row | SMILES | Western blot of azido-glycoproteins (biotinylated with phosphine-PEG3-biotin) (LS174T cells) | Azido-modified proteins in normal tissues (western blot) (LS174T tumors) | In vivo Cy5 fluorescence intensity of pretreated left tumors vs control right tumors ([1]; 24 h p.i. of i.v. DBCO-Cy5) | Ex vivo increase in Cy5 FI compared to the control tumors ([1]; ex vivo imaging of tumors) | Western blot of tumors (azido-modified glycoproteins) ([1]; intratumoral once daily for three days, tumors harvested 24 h p.i.) | Cy5 fluorescence of tumor sections (confocal imaging) ([1]; tumor sections after ex vivo imaging) | Cy5 fluorescence on the cell surface (CLSM) ([2]; 50 μM azido-sugar three days (72 h), then DBCO-Cy5 1 h) | Cy5 fluorescence by flow cytometry ([2]; compared with cells treated with Ac3ManAzEt or PBS) | Toxicity in mouse tissues (bone marrow, spleen) [3]
1 | CC(=O)OC[C@H]1OC(OC(C)=O)[C@@H](NC(=O)CN=[N+]=[N-])[C@@H](OC(C)=O)[C@@H]1OC(C)=O (stereo partly drawn) [Ac4ManAz, tetraacetyl N-azidoacetylmannosamine] | a series of protein bands | non-specific labeling in normal tissues | much stronger Cy5 fluorescence intensity | over 4 fold | a series of azido-modified glycoproteins | strong Cy5 fluorescence | strong Cy5 fluorescence on the cell surface | significantly enhanced Cy5 fluorescence | 
2 | COc1cccc2c1C(=O)c1c(O)c3c(c(O)c1C2=O)C[C@@](O)(C(=O)CO)C[C@@H]3O[C@H]1C[C@H](N)[C@H](O)[C@H](C)O1 [Doxo, doxorubicin] |  |  |  |  |  |  |  |  | much greater toxicity

— patent US11014953B2, “Trigger-activatable metabolic sugar precursors for cancer-selective labeling and targeting” (priority 2015, dated 2021)
